Measured values published in US10696949B2, “Systems and methods for canine liver modeling” (Hepregen Corporation, priority 2015, dated 2020).
Like-named read-outs stand apart in the source and are kept apart here.

Experiments:
Type in all cases: cell-based
[1] = tested on: dog hepatocytes; assay: Dog hepatocyte hypertrophy in standard HepatoPac micropatterned co-culture
Protocol: In order to create micropatterned co-cultures, hepatocytes were seeded in serum-free hepatocyte medium on collagen-patterned 24-well cell culture plates, resulting in a hepatocyte pattern due to selective cell adhesion. The cells were washed with media 2 to 6 hours later to remove unattached cells and incubated with serum supplemented hepatocyte medium overnight. 3T3-J2 or BJ fibroblasts were seeded in serum-supplemented fibroblast medium 12-24 hours later to create co-cultures. Culture medium was replaced with hepatocyte medium 24 hours after fibroblast seeding and subsequently replaced every one to two days. Spent media was stored for biochemical assays.
(§1) Hepatocyte growth factor (HGF) was implicated as one of the contributing factors causing dog hepatocyte hypertrophy and motility in the co-culture (data not shown). […] In summation, chemical inhibition (for example, via dexamethasone and TGFB2) of HGF secretion in the standard HepatoPac™ format is sufficient to abrogate hepatocyte hypertrophy.

[2] = tested on: HGF; assay: HGF secretion in standard HepatoPac co-culture under chemical inhibition; conditions: standard HepatoPac format
Excerpt: as §1

[3] = tested on: hepatocytes; assay: Hepatocyte hypertrophy in sandwich cultures with soluble HGF; conditions: soluble HGF alone, data not shown
Excerpt: as §1

Compound	dog hepatocyte hypertrophy [1]	HGF level (secretion) [2]	dog hepatocyte hypertrophy ([1]; standard HepatoPac format, 3T3-J2 stromal cells)	hepatocyte hypertrophy [3]
C[C@H](CCC(=O)O)[C@H]1CC[C@H]2[C@@H]3[C@@H](O)C[C@@H]4C[C@H](O)CC[C@]4(C)[C@H]3CC[C@]12C [UDCA]	decreased dog hepatocyte hypertrophy	reduction in HGF		
C[C@@H]1C[C@H]2[C@@H]3CCC4=CC(=O)C=C[C@]4(C)[C@@]3(F)[C@@H](O)C[C@]2(C)[C@@]1(O)C(=O)CO [dexamethasone]	diminished hypertrophy			
O=C1c2ccccc2-n2c1nc1ccccc1c2=O [tryptanthrin]		reduction in HGF	decreased dog hepatocyte hypertrophy	
Soluble human HGF: Hepatocyte growth factor, soluble human protein added to sandwich cultures				did not result in hepatocyte hypertrophy
TGFB2: HGF-inhibiting agent; known chemical inhibitor of HGF secretion	diminished hypertrophy	HGF knockdown		
